From the supplement of paper PMC8612539
In brackets after ≈: the same amount, converted by molar mass.

Tested on: Pasteurella multocida
Assay: minimum inhibitory concentration (MIC)
Description: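 Broth microdilution MIC (Sensititre BOPO7F bovine plate, CLSI methods) of 19 antimicrobials against field isolates of P. multocida, M. haemolytica, H. somni (deep nasopharyngeal swabs) and E. coli, Enterococcus spp. (rectal swabs) from weaned dairy heifers. Incubation 16-24 h at 35 C. MIC is the lowest concentration preventing visible growth. Values with <= or > lie at the tested range limits. Trimethoprim-sulfamethoxazole is given as the trimethoprim component of a 1:19 mixture.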

CCCNC[C@]1(O)[C@H](C)O[C@@H](O[C@H]2[C@H](C)[C@@H](O[C@@H]3O[C@H](C)C[C@H](N(C)C)[C@H]3O)[C@](C)(O)C[C@@H](C)CN[C@H](C)[C@@H](O)[C@](C)(O)[C@@H](CC)OC(=O)[C@@H]2C)C[C@@]1(C)OC [Tulathromycin]
Details	minimum inhibitory concentration [µg/mL]
isolate (source animal id): 10	≤ 8
isolate (source animal id): 11	32 (≈ 39.7 µM)
isolate (source animal id): 12	32 (≈ 39.7 µM)
isolate (source animal id): 19	32 (≈ 39.7 µM)
isolate (source animal id): 23	16 (≈ 19.8 µM)
isolate (source animal id): 26	≤ 8
isolate (source animal id): 98	≤ 8
isolate (source animal id): 104	> 64
isolate (source animal id): 115	32 (≈ 39.7 µM)
isolate (source animal id): 117	≤ 8
isolate (source animal id): 118	16 (≈ 19.8 µM)
isolate (source animal id): 121	32 (≈ 39.7 µM)
isolate (source animal id): 124	≤ 8
isolate (source animal id): 125	≤ 8
isolate (source animal id): 128	32 (≈ 39.7 µM)
isolate (source animal id): 131	> 64
isolate (source animal id): 135	> 64
isolate (source animal id): 136	32 (≈ 39.7 µM)
isolate (source animal id): 140	16 (≈ 19.8 µM)
isolate (source animal id): 144	16 (≈ 19.8 µM)
isolate (source animal id): 146	16 (≈ 19.8 µM)
isolate (source animal id): 150	64 (≈ 79.4 µM)
isolate (source animal id): 151	64 (≈ 79.4 µM)
isolate (source animal id): 153	16 (≈ 19.8 µM)
isolate (source animal id): 155	≤ 8
isolate (source animal id): 157	≤ 8
isolate (source animal id): 160	64 (≈ 79.4 µM)
isolate (source animal id): 164	64 (≈ 79.4 µM)
isolate (source animal id): 165	64 (≈ 79.4 µM)
isolate (source animal id): 167	≤ 8
isolate (source animal id): 168	≤ 8
isolate (source animal id): 169	≤ 8
isolate (source animal id): 170	≤ 8
isolate (source animal id): 171	≤ 8
isolate (source animal id): 172	≤ 8
isolate (source animal id): 173	16 (≈ 19.8 µM)
isolate (source animal id): 174	≤ 8
isolate (source animal id): 175	≤ 8
isolate (source animal id): 176	≤ 8
isolate (source animal id): 177	≤ 8
isolate (source animal id): 178	≤ 8
isolate (source animal id): 179	≤ 8
isolate (source animal id): 182	≤ 8
isolate (source animal id): 192	≤ 8
isolate (source animal id): 193	≤ 8
isolate (source animal id): 195	≤ 8
isolate (source animal id): 196	≤ 8
isolate (source animal id): 197	≤ 8
isolate (source animal id): 198	16 (≈ 19.8 µM)
isolate (source animal id): 199	≤ 8
isolate (source animal id): 200	≤ 8
isolate (source animal id): 201	≤ 8
isolate (source animal id): 203	≤ 8
isolate (source animal id): 204	≤ 8
isolate (source animal id): 205	16 (≈ 19.8 µM)
isolate (source animal id): 206	≤ 8
isolate (source animal id): 207	≤ 8
isolate (source animal id): 208	≤ 8
isolate (source animal id): 209	≤ 8
isolate (source animal id): 210	16 (≈ 19.8 µM)
isolate (source animal id): 213	≤ 8
isolate (source animal id): 216	≤ 8
isolate (source animal id): 223	16 (≈ 19.8 µM)
isolate (source animal id): 227	≤ 8
isolate (source animal id): 229	≤ 8
isolate (source animal id): 233	≤ 8
isolate (source animal id): 234	≤ 8
isolate (source animal id): 237	16 (≈ 19.8 µM)
isolate (source animal id): 241	16 (≈ 19.8 µM)
isolate (source animal id): 245	≤ 8
isolate (source animal id): 247	16 (≈ 19.8 µM)
isolate (source animal id): 250	≤ 8
isolate (source animal id): 254	32 (≈ 39.7 µM)
isolate (source animal id): 255	16 (≈ 19.8 µM)
isolate (source animal id): 258	≤ 8
isolate (source animal id): 261	≤ 8
isolate (source animal id): 262	16 (≈ 19.8 µM)
isolate (source animal id): 269	≤ 8
isolate (source animal id): 270	≤ 8
isolate (source animal id): 274	≤ 8
isolate (source animal id): 275	≤ 8
isolate (source animal id): 276	16 (≈ 19.8 µM)
isolate (source animal id): 277	≤ 8
isolate (source animal id): 278	≤ 8
isolate (source animal id): 279	≤ 8
isolate (source animal id): 280	> 64
isolate (source animal id): 284	≤ 8
isolate (source animal id): 285	16 (≈ 19.8 µM)
isolate (source animal id): 287	16 (≈ 19.8 µM)
isolate (source animal id): 290	≤ 8
isolate (source animal id): 294	≤ 8
isolate (source animal id): 295	16 (≈ 19.8 µM)
isolate (source animal id): 296	≤ 8
isolate (source animal id): 307	≤ 8
isolate (source animal id): 310	16 (≈ 19.8 µM)
isolate (source animal id): 311	16 (≈ 19.8 µM)
isolate (source animal id): 312	≤ 8
isolate (source animal id): 313	16 (≈ 19.8 µM)
isolate (source animal id): 315	16 (≈ 19.8 µM)
isolate (source animal id): 316	16 (≈ 19.8 µM)

CC[C@H]1OC(=O)C[C@@H](O)[C@H](C)[C@@H](O[C@@H]2O[C@H](C)[C@@H](O)[C@H](N(C)C)[C@H]2O)[C@@H](CCN2CCCCC2)C[C@@H](C)C(=O)/C=C/C(C)=C/[C@@H]1CN1CCCCC1 [Tildipirosin]
Details	minimum inhibitory concentration [µg/mL]
isolate (source animal id): 10	> 16
isolate (source animal id): 11	> 16
isolate (source animal id): 12	> 16
isolate (source animal id): 19	> 16
isolate (source animal id): 23	> 16
isolate (source animal id): 26	> 16
isolate (source animal id): 98	> 16
isolate (source animal id): 104	> 16
isolate (source animal id): 115	> 16
isolate (source animal id): 117	> 16
isolate (source animal id): 118	> 16
isolate (source animal id): 121	> 16
isolate (source animal id): 124	> 16
isolate (source animal id): 125	> 16
isolate (source animal id): 128	> 16
isolate (source animal id): 131	> 16
isolate (source animal id): 135	> 16
isolate (source animal id): 136	> 16
isolate (source animal id): 140	> 16
isolate (source animal id): 144	> 16
isolate (source animal id): 146	> 16
isolate (source animal id): 150	> 16
isolate (source animal id): 151	> 16
isolate (source animal id): 153	> 16
isolate (source animal id): 155	> 16
isolate (source animal id): 157	> 16
isolate (source animal id): 160	> 16
isolate (source animal id): 164	> 16
isolate (source animal id): 165	> 16
isolate (source animal id): 167	≤ 1
isolate (source animal id): 168	> 16
isolate (source animal id): 169	≤ 1
isolate (source animal id): 170	2 (≈ 2.72 µM)
isolate (source animal id): 171	≤ 1
isolate (source animal id): 172	≤ 1
isolate (source animal id): 173	> 16
isolate (source animal id): 174	≤ 1
isolate (source animal id): 175	≤ 1
isolate (source animal id): 176	≤ 1
isolate (source animal id): 177	≤ 1
isolate (source animal id): 178	≤ 1
isolate (source animal id): 179	≤ 1
isolate (source animal id): 182	2 (≈ 2.72 µM)
isolate (source animal id): 192	≤ 1
isolate (source animal id): 193	≤ 1
isolate (source animal id): 195	≤ 1
isolate (source animal id): 196	≤ 1
isolate (source animal id): 197	2 (≈ 2.72 µM)
isolate (source animal id): 198	> 16
isolate (source animal id): 199	≤ 1
isolate (source animal id): 200	≤ 1
isolate (source animal id): 201	≤ 1
isolate (source animal id): 203	≤ 1
isolate (source animal id): 204	≤ 1
isolate (source animal id): 205	> 16
isolate (source animal id): 206	≤ 1
isolate (source animal id): 207	≤ 1
isolate (source animal id): 208	≤ 1
isolate (source animal id): 209	≤ 1
isolate (source animal id): 210	> 16
isolate (source animal id): 213	2 (≈ 2.72 µM)
isolate (source animal id): 216	≤ 1
isolate (source animal id): 223	> 16
isolate (source animal id): 227	≤ 1
isolate (source animal id): 229	> 16
isolate (source animal id): 233	> 16
isolate (source animal id): 234	> 16
isolate (source animal id): 237	> 16
isolate (source animal id): 241	> 16
isolate (source animal id): 245	> 16
isolate (source animal id): 247	> 16
isolate (source animal id): 250	> 16
isolate (source animal id): 254	> 16
isolate (source animal id): 255	> 16
isolate (source animal id): 258	≤ 1
isolate (source animal id): 261	> 16
isolate (source animal id): 262	> 16
isolate (source animal id): 269	≤ 1
isolate (source animal id): 270	> 16
isolate (source animal id): 274	> 16
isolate (source animal id): 275	> 16
isolate (source animal id): 276	> 16
isolate (source animal id): 277	≤ 1
isolate (source animal id): 278	> 16
isolate (source animal id): 279	> 16
isolate (source animal id): 280	> 16
isolate (source animal id): 284	> 16
isolate (source animal id): 285	> 16
isolate (source animal id): 287	> 16
isolate (source animal id): 290	> 16
isolate (source animal id): 294	> 16
isolate (source animal id): 295	> 16
isolate (source animal id): 296	> 16
isolate (source animal id): 307	> 16
isolate (source animal id): 310	> 16
isolate (source animal id): 311	> 16
isolate (source animal id): 312	> 16
isolate (source animal id): 313	> 16
isolate (source animal id): 315	> 16
isolate (source animal id): 316	> 16
